Test results: US9745339B2 (GRAFFINITY PHARMACEUTICALS GMBH, priority 2012, dated 2017)

How the values were obtained:
[1] = system: Palivizumab; assay: Microtiter plate chromatography of resins: binding and elution of Palivizumab; conditions: fraction of injected protein bound; 0.5 mg/ml IgG in PBS pH 7.3
Procedure, shortened: (§1)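 About 30 μl resin columns loaded with 3.3 cv IgG at 0.5 mg ml^−1 in PBS (or undiluted HCP), washed with 5 cv PBS, eluted with 5 cv glycine pH 2.5. Fractions quantified by Bradford; bound fraction = (mi−mft)/mi, yield = me/mi.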

[2] = system: Tocilizumab; assay: Microtiter plate chromatography of resins: binding and elution of Tocilizumab; conditions: fraction of injected protein bound; 0.5 mg/ml IgG in PBS pH 7.3
Procedure, shortened: as §1

[3] = Alkaline stability of ligands in 0.5 M sodium hydroxide; type: physicochemical; conditions: 25° C., 8 days, hydrolysis monitored by LC-MS, read-out: t0.5 (half-life) (converted)
Protocol: A subset of ligands from Example 1 was tested for its alkaline stability. Ligands were treated with 0.5 M sodium hydroxide at 25° C. for 8 days. Hydrolysis was monitored by LC-MS analysis.

[4] = system: poly-IgG from human serum (h-poly-IgG); assay: Microtiter plate chromatography of resins: binding and elution of human poly-IgG; conditions: fraction of injected protein bound; 0.5 mg/ml IgG in PBS pH 7.3
Procedure, shortened: as §1

[5] = target: T1, Bevacizumab (Homo sapiens, UniProt P01857); assay: Uptake kinetics by batch adsorption (time-scale of binding); conditions: time after which 80% of equilibrium saturation occurred; 0.75 mg/ml Bevacizumab in PBS, 25° C.
T1 construct: 0.5 mg/ml IgG in PBS pH 7.3; ligand immobilized on SEPHAR; Bevacizumab Yield; other: mass eluted (glycine pH 2.5) / mass injected; kd (dissociation constant, Langmuir isotherm); other: Bevacizumab 0.05-5 mg/ml in PBS pH 7.3, 25° C., at least 3 h; qm (maximum capacity); other: mg Bevacizumab per ml of resin; Langmuir isotherm; t0; fused on or other part: Humanized anti-VEGF-A VH domain joined N-terminally to the IGHG1 constant region (engineered, no UniProt entry)
Protocol: Uptake kinetics was investigated similarly by batch adsorption in 96-well filter plates. Again, 10 μl of sorbent slurry (50% v/v) were mixed with 100 μl of protein solution. […] Reactions were agitated vigorously at 25° C. for up to 80 min. Supernatants were separated rapidly by spinning through filters after 2.5, 5, 10, 20, 40 and 80 minutes and sampled for analysis. Concentrations of the antibody were analyzed by Bradford assay.
For determination of t0.8, measured concentrations in the supernatant were interpolated by fitting of double-exponentials and values of t0.8 were read out from graphs (2).

[6] = target: T1, Bevacizumab; assay: Microtiter plate chromatography of resins: binding and elution of Bevacizumab; conditions: for Bevacizumab Bound: fraction of injected protein bound, 0.5 mg/ml IgG in PBS pH 7.3, ligand immobilized on SEPHAROSE 4 FF; for Bevacizumab Yield: mass eluted (glycine pH 2.5) / mass injected
Procedure, shortened: (§2)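 About 30 μl packed resin columns loaded with 3.3 cv IgG at 0.5 mg ml^−1 in PBS or undiluted HCP, washed with 5 cv PBS, eluted with 5 cv glycine pH 2.5. Protein in fractions by Bradford. Bound fraction = (injected − flowthrough)/injected; yield = eluted/injected; selectivity = Bevacizumab bound fraction / HCP bound fraction, truncated beyond 10.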

[7] = target: T1, Bevacizumab; assay: Langmuir isotherms by batch adsorption; type: binding; conditions: for qm (maximum capacity): mg Bevacizumab per ml of resin, Langmuir isotherm; for Kd: Bevacizumab 0.05-5 mg/ml in PBS pH 7.3, 25° C., at least 3 h, read-out: kd (dissociation constant, Langmuir isotherm) (converted)
Protocol: Experiments were performed with Bevacizumab as antibody. Parameters of Langmuir isotherms for purified antibody were determined by batch adsorption experiments in 96-well microtiter plates. In each well, 10 μl of sorbent slurry (50% v/v) were mixed with 100 μl of protein solution. Initial concentrations varied from 0.05-5 mg/ml in phosphate-buffered saline (0.15 M NaCl, 20 mM phosphate buffer, pH 7.3; PBS). Reactions were agitated vigorously at 25° C. for at least 3 h. Afterwards, antibody concentration in the supernatants were measured by Bradford assay. Data was evaluated by direct fitting of the values with the Langmuir isotherm equation (1).
Parameters of Langmuir isotherms, i.e. dissociation constants Kd and maximum capacities qm, were determined from the measured concentrations in the supernatants. Parameters were estimated by numerical fitting of the model equation derived by Chase (1)

[8] = system: host cell proteins (HCP); assay: Microtiter plate chromatography of resins: binding of host cell proteins; parameters: species or system CHO cell culture; conditions: fraction of injected undiluted host cell proteins bound
Procedure, shortened: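 Undiluted HCP-containing flowthrough from protein A chromatography of CHO serum-free culture was loaded onto ~30 µl packed resin columns in microtiter-plate format. Columns were washed with 5 cv PBS and eluted with glycine pH 2.5, and fractions were quantified by Bradford. Bound fraction = (injected − flowthrough mass)/injected mass.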

[9] = system: Cetuximab; assay: Microtiter plate chromatography of resins: binding and elution of Cetuximab; conditions: fraction of injected protein bound; 0.5 mg/ml IgG in PBS pH 7.3
Procedure, shortened: as §1

[10] = system: Bevacizumab; assay: Microtiter plate chromatography of resins: binding and elution of Bevacizumab; conditions: fraction of bound Bevacizumab divided by fraction of bound HCP; truncated for values beyond 10
Procedure, shortened: as §2

SMILES | Palivizumab Bound [1] | Tocilizumab Bound [2] | half-life [3] | h-poly-IgG Bound [4] | t0.8 (time-scale of binding) [5] | Bevacizumab Bound [6] | Bevacizumab Yield [6] | qm (maximum capacity) [7] | HCP Bound [8] | Cetuximab Bound [9] | Kd [7] | Selectivity [10]
NCCCNc1ccc(C(=O)Nc2nc(-c3ccccn3)cs2)cn1 [Ligand L40, 6-[(3-Amino-1-propyl)amino]nicotinic acid N-[4-(2-pyridyl)thiazol-2-yl] amide] | 89% | 99% | 32.6 days | 98% | 9.2 min | 100% | 101% | 39 mg/mL | 20.5% | 100% | – | –
Cc1nnc(NC(=O)c2ccc3c(c2)ncn3CCCN)s1 [Ligand L14, 1-(3-Amino-1-propyl)benzimidazole-5-carboxylic acid N-(2-methyl-1,3,4-thiadiazol-5-yl) amide] | 89% | 100% | > 41.6 days | 92% | – | 100% | 100% | 35 mg/mL | 16% | 100% | 212 µM | –
CCc1nc2cc(C(=O)Nc3nc(-c4ccccn4)cs3)ccc2n1CCCN [Ligand L43, 1-(3-Amino-1-propyl)-2-ethylbenzimidazole-5-carboxylic acid N-[4-(2-pyridyl)thiazol-2-yl] amide] | 98% | 100% | > 41.6 days | 100% | 8.2 min | 100% | 95% | 43 mg/mL | 18% | 100% | 399 µM | –
Cn1c(CCCCCN)nc2cc(C(=O)Nc3nnc(-c4ccco4)s3)ccc21 [Ligand L31, 2-(5-Amino-1-pentyl)-1-methylbenzimidazole-5-carboxylic acid N-[5-(2-furyl)-1,3,4-thiadiazol-2-yl]amide] | 100% | 100% | – | 100% | 5.3 min | 100% | 95% | 45 mg/mL | 20% | 100% | 117 µM | –
NCCCNc1ccc(C(=O)Nc2nnc(-c3ccco3)s2)cn1 [Ligand L19, 6-[(3-Amino-1-propyl)amino]nicotinic acid N-[5-(2-furyl)-1,3,4-thiadiazol-2-yl]amide] | 99% | 100% | > 41.6 days | 98% | 8.9 min | 100% | 98% | 42 mg/mL | 14% | 100% | 578 µM | –
NCCCn1cnc2cc(C(=O)Nc3nc(-c4ccccn4)cs3)ccc21 [Ligand L23, 1-(3-Amino-1-propyl)benzimidazole-5-carboxylic acid N-[4-(2-pyridyl)thiazol-2-yl] amide] | 100% | 100% | > 41.6 days | 100% | 7.7 min | 100% | 107% | 46 mg/mL | 13% | 100% | 122 µM | –
NCCCn1c(=O)[nH]c2cc(C(=O)Nc3nnc(-c4ccco4)s3)ccc21 [Ligand L24, 1-(3-Amino-1-propyl)-2-oxo-2,3-dihydrobenzimidazole-5-carboxylic acid N-[5-(2-furyl)-1,3,4-thiadiazol-2-yl] amide] | 100% | 100% | > 41.6 days | 100% | 9.4 min | 100% | 101% | 42 mg/mL | 12% | 100% | 583 µM | –
Cc1nc2cc(C(=O)Nc3nc(-c4ccncc4)cs3)ccc2n1CCCN [Ligand L51, 1-(3-Amino-1-propyl)-2-methylbenzimidazole-5-carboxylic acid N-[4-(4-pyridyl)thiazol-2-yl] amide] | 94% | 98% | – | 97% | 8.8 min | 100% | 95% | 34 mg/mL | 15% | 100% | – | –
Cn1nc(NC(=O)c2ccc3c(c2)ncn3CCCN)c2ccccc21 [Ligand L02, 1-(3-Amino-1-propyl)benzimidazole-5-carboxylic acid N-(1-methyl-3-indazolyl) amide] | 91% | 100% | > 41.6 days | 100% | – | 100% | 101% | 41 mg/mL | 28% | 100% | 324 µM | –
COc1nc2cc(C(=O)Nc3nnc(-c4ccco4)s3)ccc2n1CCCN [Ligand L45, 1-(3-Amino-1-propyl)-2-methoxybenzimidazole-5-carboxylic acid N-[5-(2-furyl)-1,3,4-thiadiazol-2-yl] amide] | 100% | 100% | > 41.6 days | 100% | – | 100% | 93% | – | 15% | 100% | – | 6.7
COc1ccc(NC(=O)c2nn(CCCN)c3ccccc23)cc1C(N)=O [Ligand L04, 1-(3-Amino-1-propyl)indazole-3-carboxylic acid N-(3-carbamoyl-4-methoxyphenyl) amide] | 85% | 100% | > 41.6 days | 100% | – | 100% | 98% | – | 28% | 100% | – | 3.6
Cc1nsc(NC(=O)c2ccc3c(c2)ncn3CCCN)n1 [Ligand L36, 1-(3-Amino-1-propyl)benzimidazole-5-carboxylic acid N-(3-methyl-1,2,4-thiadiazol-5-yl) amide] | 93% | 90% | > 41.6 days | 81% | – | 100% | 104% | 35 mg/mL | 9% | 99% | 740 µM | –
